The source of these data is ChEMBL document CHEMBL2062363, “Ligand-based design, in silico ADME-Tox filtering, synthesis and biological evaluation to discover new soluble 1,4-DHP-based CFTR activators” (Eur J Med Chem, 2012).

System in the first data set: not listed separately
In words: Potentiation of forskolin-induced CFTR deltaF508 mutant expressed in FRT cells co-expressing halide-sensitive YFP-H148Q/I152L by fluorescence quenching assay. The class given is cell-based, Homo sapiens.
As to `CCOC(=O)C1=C(C)NC(C)=C(C(=O)OC)C1c1cc(Cl)cc(Cl)c1OC` (centres undefined), the “pEC50 for potentiation of CFTR deltaF508 (activation potency)” value (shortened to “pEC50 for potentiation of CFTR deltaF508”) was determined as 6.62.
Take `CCCCOc1ccc(C2C(C(=O)OCC)=C(C)NC(C)=C2C(=O)OCC)cc1`: the “pEC50 for potentiation of CFTR deltaF508” value was 5.52.
As for `CCOC(=O)C1=C(C)NC(C)=C(C(=O)OCC)C1c1ccc(Cl)c(Cl)c1`, the “pEC50 for potentiation of CFTR deltaF508” value worked out at 6.1.
For the molecule `C=CCOC(=O)C1=C(C)NC(SC)=C(C#N)C1c1ccc(Cl)cc1` (centres undefined), the “pEC50 for potentiation of CFTR deltaF508” value was found to be 6.26.
Still for that read-out and setting: the value for `COc1ccc(C2C(C(=O)OC(C)C)=C(C)NC(C)=C2C(=O)OC(C)C)cc1OC` was 5.76; that for `CC1=C(C(=O)OCc2ccccc2)C(c2ccc(Cl)cc2)C(C(=O)OCc2ccccc2)=C(C)N1` was 5.23.
For the molecule `COC(=O)C1=C(C)NC(C)=C(C(=O)OC)C1c1ccc(OCc2ccccc2)cc1`, the “pEC50 for potentiation of CFTR deltaF508” value is 5.46.
Regarding `CCOC(=O)C1=C(C)NC(C)=C(C(=O)OCC)C1c1ccc(OC)c(OC)c1`, the “pEC50 for potentiation of CFTR deltaF508” value is 6.21.
In the case of `COC(=O)C1=C(C)NC(C)=C(C(=O)OC)C1c1cccc(F)c1`, the “pEC50 for potentiation of CFTR deltaF508” value was 6.21.
The same measure, in the same setting: next, `C=CCOC(=O)C1=C(C)NC(C)=C(C(=O)OCC=C)C1c1cccc([N+](=O)[O-])c1`: 6.92.
As to `CCOC(=O)C1=C(C)NC(C)=C(C(=O)OCC)C1c1ccc(F)cc1`, the “pEC50 for potentiation of CFTR deltaF508” value came to 5.87.
As to `COC(=O)C1=C(C)N(C)C(C)=C(C(=O)OC)C1c1cccc(Cl)c1Cl`, the “pEC50 for potentiation of CFTR deltaF508” value was determined as 5.23.
For the molecule `COc1cc(C2C(C(=O)OCc3ccccc3)=C(C)NC(C)=C2C(=O)OCc2ccccc2)ccc1O`, the “pEC50 for potentiation of CFTR deltaF508” value is given as 5.28.
`CCOC(=O)C1=C(C)NC(C)=C(C(=O)OCC)C1c1ccc(C(C)(C)C)cc1`: the “pEC50 for potentiation of CFTR deltaF508” value was determined as 5.89.
Turning to `CCOC(=O)C1=C(C)NC(C)=C(C(=O)OCC)C1c1cccc(Oc2ccccc2)c1`, the “pEC50 for potentiation of CFTR deltaF508” value was found to be 6.59.
Take `COC(=O)C1=C(C)N=C(C)/C(=C(/O)OC)C1c1c(F)cccc1Cl` (centres undefined): the “pEC50 for potentiation of CFTR deltaF508” value came out at 6.8.
The same measure, in the same setting: the value for `COCCOC(=O)C1=C(C)N=C(C)/C(=C(/O)OCCOC)C1/C=C/c1ccccc1OC` (centres undefined) was 6.1; that for `COC(=O)C1=C(C)NC(C)=C(C(=O)OC)C1c1ccc(I)cc1` was 6.34; that for `CCOC(=O)C1=C(C)NC(C)=C(C(=O)OCC)C1c1ccc(Br)cc1` was 6.3.
Turning to `CCOC(=O)C1=C(C)NC(C)=C(C(=O)OCC)C1c1ccccc1Cl`, the “pEC50 for potentiation of CFTR deltaF508” value is listed as 6.59.
Turning to `CCOC(=O)C1=C(C)NC(C)=C(C(=O)OCC)C1c1ccc(N(C)C)cc1`, the “pEC50 for potentiation of CFTR deltaF508” value turned out to be 6.1.
On to `COC(=O)C1=C(C)NC(C)=C(C(=O)OC)C1c1ccc(OC)c(Br)c1`, for which the “pEC50 for potentiation of CFTR deltaF508” value amounted to 5.48.

The next data set concerns the target L-type voltage-dependent Ca2+ channel (Homo sapiens, UniProt O60840+Q01668+Q13698+Q13936). As to the kind of experiment: Inhibition of L-type voltage-dependent Ca2+ channel at 1 uM.
For `CCOC(=O)C1=C(C)NC(C)=C(C(=O)OC)C1c1cc(Cl)cc(Cl)c1OC` (centres undefined), the inhibition (commonly the drop in the measured response relative to a control, in per cent) at 1 µM came out at 100%.
In turn, `CCCCOc1ccc(C2C(C(=O)OCC)=C(C)NC(C)=C2C(=O)OCC)cc1` showed an inhibition at 1 µM of 9.6%.
`CCOC(=O)C1=C(C)NC(C)=C(C(=O)OCC)C1c1ccc(Cl)c(Cl)c1` gave an inhibition at 1 µM of 100%.
Same read-out and setting: next, `C=CCOC(=O)C1=C(C)NC(SC)=C(C#N)C1c1ccc(Cl)cc1` (centres undefined): 36.7%.
In turn, `COc1ccc(C2C(C(=O)OC(C)C)=C(C)NC(C)=C2C(=O)OC(C)C)cc1OC` registered an inhibition at 1 µM of 22.1%.
Consider `CC1=C(C(=O)OCc2ccccc2)C(c2ccc(Cl)cc2)C(C(=O)OCc2ccccc2)=C(C)N1`, for which the inhibition at 1 µM was found to be 92.9%.
Molecule `COC(=O)C1=C(C)NC(C)=C(C(=O)OC)C1c1ccc(OCc2ccccc2)cc1` came in with an inhibition at 1 µM of 22.5%.
The molecule `CCOC(=O)C1=C(C)NC(C)=C(C(=O)OCC)C1c1ccc(OC)c(OC)c1` gave an inhibition at 1 µM of 100%.
The molecule `COC(=O)C1=C(C)NC(C)=C(C(=O)OC)C1c1cccc(F)c1` had an inhibition at 1 µM of 91.9%.
`C=CCOC(=O)C1=C(C)NC(C)=C(C(=O)OCC=C)C1c1cccc([N+](=O)[O-])c1` gave an inhibition at 1 µM of 100%.
Still for that read-out and setting: the value for `CCOC(=O)C1=C(C)NC(C)=C(C(=O)OCC)C1c1ccc(F)cc1` was 98.6%.
On the same count and under the same terms, next, `COC(=O)C1=C(C)N(C)C(C)=C(C(=O)OC)C1c1cccc(Cl)c1Cl`: 42.2%; `COc1cc(C2C(C(=O)OCc3ccccc3)=C(C)NC(C)=C2C(=O)OCc2ccccc2)ccc1O`: 44.9%.
Same read-out and setting: next, `CCOC(=O)C1=C(C)NC(C)=C(C(=O)OCC)C1c1ccc(C(C)(C)C)cc1`: 32.1%.
`CCOC(=O)C1=C(C)NC(C)=C(C(=O)OCC)C1c1cccc(Oc2ccccc2)c1` gave an inhibition at 1 µM of 43.2%.
Take `COC(=O)C1=C(C)N=C(C)/C(=C(/O)OC)C1c1c(F)cccc1Cl` (centres undefined): at 1 µM the inhibition was 100%.
Same read-out and setting: the value for `COCCOC(=O)C1=C(C)N=C(C)/C(=C(/O)OCCOC)C1/C=C/c1ccccc1OC` (centres undefined) was 10.6%; that for `COC(=O)C1=C(C)NC(C)=C(C(=O)OC)C1c1ccc(I)cc1` was 12.3%; that for `CCOC(=O)C1=C(C)NC(C)=C(C(=O)OCC)C1c1ccc(Br)cc1` was 27.1%.
The molecule `CCOC(=O)C1=C(C)NC(C)=C(C(=O)OCC)C1c1ccccc1Cl` returned an inhibition at 1 µM of 100%.
In turn, `CCOC(=O)C1=C(C)NC(C)=C(C(=O)OCC)C1c1ccc(N(C)C)cc1` came in with an inhibition at 1 µM of 30.4%.
For `COC(=O)C1=C(C)NC(C)=C(C(=O)OC)C1c1ccc(OC)c(Br)c1`, 1 µM produced 32.4% inhibition.
